ChEMBL document CHEMBL3994622, “Design and synthesis of new RAF kinase-inhibiting antiproliferative quinoline derivatives. Part 2: Diarylurea derivatives” (Eur J Med Chem, 2017)

What was measured:
[1] = target: Receptor tyrosine-protein kinase erbB-2 (Homo sapiens) (UniProt P04626); experiment: Inhibition of human HER2 at 10 uM using poly[Glu:Tyr] (4:1) as substrate in presence of [33P]ATP by Hotspot assay relative to control
EKVX [2] = experiment: Growth inhibition of human EKVX cells assessed as cell growth at 3 uM incubated for 48 hrs by sulforhodamine B assay relative to control; assay type: functional; settings: read-out: Activity
[3] = target: Mitogen-activated protein kinase 1 (Homo sapiens) (UniProt P28482); experiment: Inhibition of human ERK2 at 10 uM using myelin basic protein as substrate in presence of [33P]ATP by Hotspot assay relative to control
Sequence of Mitogen-activated protein kinase 1 (Homo sapiens) (P28482 whole entry): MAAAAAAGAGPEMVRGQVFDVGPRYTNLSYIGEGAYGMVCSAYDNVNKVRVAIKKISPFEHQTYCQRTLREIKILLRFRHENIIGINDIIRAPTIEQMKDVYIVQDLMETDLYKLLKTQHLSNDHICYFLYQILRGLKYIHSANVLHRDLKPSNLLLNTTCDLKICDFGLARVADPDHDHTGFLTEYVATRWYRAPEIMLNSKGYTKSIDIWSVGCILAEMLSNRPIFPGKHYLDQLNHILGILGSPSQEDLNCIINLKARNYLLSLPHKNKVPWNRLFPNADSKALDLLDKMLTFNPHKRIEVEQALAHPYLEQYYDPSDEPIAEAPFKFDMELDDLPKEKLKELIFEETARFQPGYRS

[4] = target: Receptor-type tyrosine-protein kinase FLT3 (Homo sapiens) (UniProt P36888); experiment: Inhibition of human FLT3 at 10 uM using EAIYAAPFAKKK as substrate in presence of [33P]ATP by Hotspot assay relative to control
Sequence of Receptor-type tyrosine-protein kinase FLT3 (Homo sapiens) (P36888 whole entry): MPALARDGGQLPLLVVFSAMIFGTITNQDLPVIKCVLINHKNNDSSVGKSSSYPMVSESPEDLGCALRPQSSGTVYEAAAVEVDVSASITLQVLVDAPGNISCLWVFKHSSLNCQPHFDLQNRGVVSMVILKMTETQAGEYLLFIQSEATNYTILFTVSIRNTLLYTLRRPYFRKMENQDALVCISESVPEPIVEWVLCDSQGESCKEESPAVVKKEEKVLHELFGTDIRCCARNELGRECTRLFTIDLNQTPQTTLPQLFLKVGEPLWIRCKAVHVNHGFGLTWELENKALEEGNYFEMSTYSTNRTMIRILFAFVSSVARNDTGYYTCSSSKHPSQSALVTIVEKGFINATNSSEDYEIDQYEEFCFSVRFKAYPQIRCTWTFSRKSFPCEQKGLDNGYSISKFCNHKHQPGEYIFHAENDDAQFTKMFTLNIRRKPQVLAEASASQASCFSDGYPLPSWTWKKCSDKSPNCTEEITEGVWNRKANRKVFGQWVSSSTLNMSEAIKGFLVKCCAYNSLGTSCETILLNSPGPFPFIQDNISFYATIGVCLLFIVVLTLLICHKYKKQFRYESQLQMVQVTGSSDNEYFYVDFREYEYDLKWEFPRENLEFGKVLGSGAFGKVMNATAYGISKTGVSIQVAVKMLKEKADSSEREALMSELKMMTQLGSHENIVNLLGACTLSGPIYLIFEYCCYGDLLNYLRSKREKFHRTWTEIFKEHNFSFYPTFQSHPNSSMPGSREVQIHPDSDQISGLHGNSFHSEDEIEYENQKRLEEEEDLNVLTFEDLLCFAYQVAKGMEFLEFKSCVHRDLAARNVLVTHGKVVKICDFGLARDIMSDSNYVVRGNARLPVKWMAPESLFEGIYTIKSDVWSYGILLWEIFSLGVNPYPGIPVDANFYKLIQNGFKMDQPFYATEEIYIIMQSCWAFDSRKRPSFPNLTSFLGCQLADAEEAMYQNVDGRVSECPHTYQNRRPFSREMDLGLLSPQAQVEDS

[5] = target: Vascular endothelial growth factor receptor 2 (Homo sapiens) (UniProt P35968); experiment: Inhibition of human KDR at 10 uM using poly[Glu:Tyr] (4:1) as substrate in presence of [33P]ATP by Hotspot assay relative to control
Sequence of Vascular endothelial growth factor receptor 2 (Homo sapiens) (P35968 whole entry): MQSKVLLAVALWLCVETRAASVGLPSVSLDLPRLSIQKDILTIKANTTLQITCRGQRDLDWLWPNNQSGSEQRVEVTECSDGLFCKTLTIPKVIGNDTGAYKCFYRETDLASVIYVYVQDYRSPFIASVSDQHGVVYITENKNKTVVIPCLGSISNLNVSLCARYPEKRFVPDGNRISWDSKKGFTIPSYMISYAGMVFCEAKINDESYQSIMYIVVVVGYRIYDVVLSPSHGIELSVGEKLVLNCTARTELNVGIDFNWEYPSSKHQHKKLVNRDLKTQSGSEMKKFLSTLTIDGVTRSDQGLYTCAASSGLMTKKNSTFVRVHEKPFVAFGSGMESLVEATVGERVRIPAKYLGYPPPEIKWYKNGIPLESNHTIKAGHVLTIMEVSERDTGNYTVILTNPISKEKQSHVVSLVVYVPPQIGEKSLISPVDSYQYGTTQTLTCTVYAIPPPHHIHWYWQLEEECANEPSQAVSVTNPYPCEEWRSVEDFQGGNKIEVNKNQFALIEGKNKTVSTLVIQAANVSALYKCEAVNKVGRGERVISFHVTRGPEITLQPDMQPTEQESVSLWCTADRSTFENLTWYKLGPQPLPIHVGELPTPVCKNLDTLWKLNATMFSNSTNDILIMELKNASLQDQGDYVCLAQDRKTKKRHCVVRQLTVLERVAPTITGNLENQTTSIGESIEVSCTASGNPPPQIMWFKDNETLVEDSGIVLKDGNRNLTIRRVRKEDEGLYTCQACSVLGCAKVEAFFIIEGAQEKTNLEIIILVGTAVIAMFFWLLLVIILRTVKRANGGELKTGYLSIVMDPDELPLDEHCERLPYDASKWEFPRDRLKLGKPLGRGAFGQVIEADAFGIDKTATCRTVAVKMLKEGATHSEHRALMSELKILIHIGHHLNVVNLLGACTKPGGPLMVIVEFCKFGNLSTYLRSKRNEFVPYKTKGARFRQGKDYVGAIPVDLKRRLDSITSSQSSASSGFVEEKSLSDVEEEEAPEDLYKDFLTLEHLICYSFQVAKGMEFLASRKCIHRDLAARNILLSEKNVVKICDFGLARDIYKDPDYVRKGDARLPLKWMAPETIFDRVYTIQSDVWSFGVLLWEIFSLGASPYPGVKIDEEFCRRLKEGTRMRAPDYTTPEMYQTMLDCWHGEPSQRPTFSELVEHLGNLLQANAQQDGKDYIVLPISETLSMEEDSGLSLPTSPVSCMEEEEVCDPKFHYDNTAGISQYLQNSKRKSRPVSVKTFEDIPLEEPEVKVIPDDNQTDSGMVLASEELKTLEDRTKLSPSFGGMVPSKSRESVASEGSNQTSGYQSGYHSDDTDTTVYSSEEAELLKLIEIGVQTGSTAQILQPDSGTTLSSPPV

SF-268 [6] = experiment: Growth inhibition of human SF268 cells assessed as cell growth at 100 uM incubated for 48 hrs by sulforhodamine B assay relative to control; assay type: functional; settings: SF-268, 48 h, read-out: Activity
NCI-H322M = experiment: Growth inhibition of human NCI-H322M cells assessed as cell growth at 50 uM incubated for 48 hrs by sulforhodamine B assay relative to control; assay type: functional; settings: read-out: Activity
UACC-62 = experiment: Growth inhibition of human UACC62 cells assessed as cell growth at 0.005 uM incubated for 48 hrs by sulforhodamine B assay relative to control; assay type: functional; settings: UACC-62, 48 h, read-out: Activity
NCI-H522 = experiment: Growth inhibition of human NCI-H522 cells assessed as cell growth at 0.05 uM incubated for 48 hrs by sulforhodamine B assay relative to control; assay type: functional; settings: NCI-H522, 48 h, read-out: Activity
ACHN [7] = experiment: Growth inhibition of human ACHN cells assessed as cell growth at 50 uM incubated for 48 hrs by sulforhodamine B assay relative to control; assay type: functional; settings: read-out: Activity
SF-268 [8] = experiment: Growth inhibition of human SF268 cells assessed as cell growth at 0.005 uM incubated for 48 hrs by sulforhodamine B assay relative to control; assay type: functional; settings: SF-268, 48 h, read-out: Activity
RPMI-8226 = experiment: Growth inhibition of human RPMI8226 cells assessed as cell growth at 0.05 uM incubated for 48 hrs by sulforhodamine B assay relative to control; assay type: functional; settings: RPMI-8226, 48 h, read-out: Activity
ACHN [9] = experiment: Growth inhibition of human ACHN cells assessed as cell growth at 5 uM incubated for 48 hrs by sulforhodamine B assay relative to control; assay type: functional; settings: read-out: Activity
RXF 393 = experiment: Growth inhibition of human RXF393 cells assessed as cell growth at 0.5 uM incubated for 48 hrs by sulforhodamine B assay relative to control; assay type: functional; settings: RXF 393, 48 h, read-out: Activity
HCT-116 = experiment: Growth inhibition of human HCT116 cells assessed as cell growth at 50 uM incubated for 48 hrs by sulforhodamine B assay relative to control; assay type: functional; settings: HCT-116, 48 h, read-out: Activity
SK-MEL-2 = experiment: Growth inhibition of human SK-MEL-2 cells assessed as cell growth at 5 uM incubated for 48 hrs by sulforhodamine B assay relative to control; assay type: functional; settings: SK-MEL-2, 48 h, read-out: Activity
EKVX [10] = experiment: Growth inhibition of human EKVX cells assessed as cell growth at 0.005 uM incubated for 48 hrs by sulforhodamine B assay relative to control; assay type: functional; settings: read-out: Activity
CAKI-1 = experiment: Growth inhibition of human Caki1 cells assessed as cell growth at 0.05 uM incubated for 48 hrs by sulforhodamine B assay relative to control; assay type: functional; settings: CAKI-1, 48 h, read-out: Activity
M14 = experiment: Growth inhibition of human M14 cells assessed as cell growth at 0.05 uM incubated for 48 hrs by sulforhodamine B assay relative to control; assay type: functional; settings: M14, 48 h, read-out: Activity
HOP-92 = experiment: Growth inhibition of human HOP92 cells assessed as cell growth at 0.5 uM incubated for 48 hrs by sulforhodamine B assay relative to control; assay type: functional; settings: HOP-92, 48 h, read-out: Activity
LOX IMVI = experiment: Growth inhibition of human LOXIMVI cells assessed as cell growth at 50 uM incubated for 48 hrs by sulforhodamine B assay relative to control; assay type: functional; settings: read-out: Activity
786-0 = experiment: Growth inhibition of human 786-0 cells assessed as cell growth at 50 uM incubated for 48 hrs by sulforhodamine B assay relative to control; assay type: functional; settings: 786-0, 48 h, read-out: Activity
NCI/ADR-RES = experiment: Growth inhibition of human NCI/ADR-RES cells assessed as cell growth at 50 uM incubated for 48 hrs by sulforhodamine B assay relative to control; assay type: functional; settings: read-out: Activity
HT-29 [11] = experiment: Growth inhibition of human HT-29 cells assessed as cell growth at 50 uM incubated for 48 hrs by sulforhodamine B assay relative to control; assay type: functional; settings: HT-29, 48 h, read-out: Activity
MOLT-4 = experiment: Growth inhibition of human MOLT4 cells assessed as cell growth at 5 uM incubated for 48 hrs by sulforhodamine B assay relative to control; assay type: functional; settings: MOLT-4, 48 h, read-out: Activity
TK-10 = experiment: Growth inhibition of human TK10 cells assessed as cell growth at 0.5 uM incubated for 48 hrs by sulforhodamine B assay relative to control; assay type: functional; settings: TK-10, 48 h, read-out: Activity
U-251 = experiment: Growth inhibition of human U251 cells assessed as cell growth at 0.05 uM incubated for 48 hrs by sulforhodamine B assay relative to control; assay type: functional; settings: U-251, 48 h, read-out: Activity
SNB-19 [12] = experiment: Growth inhibition of human SNB19 cells assessed as cell growth at 0.05 uM incubated for 48 hrs by sulforhodamine B assay relative to control; assay type: functional; settings: SNB-19, 48 h, read-out: Activity
HT-29 [13] = experiment: Growth inhibition of human HT-29 cells assessed as cell growth at 0.005 uM incubated for 48 hrs by sulforhodamine B assay relative to control; assay type: functional; settings: HT-29, 48 h, read-out: Activity
SNB-19 [14] = experiment: Growth inhibition of human SNB19 cells assessed as cell growth at 0.005 uM incubated for 48 hrs by sulforhodamine B assay relative to control; assay type: functional; settings: SNB-19, 48 h, read-out: Activity
ACHN [15] = experiment: Growth inhibition of human ACHN cells assessed as cell growth at 0.5 uM incubated for 48 hrs by sulforhodamine B assay relative to control; assay type: functional; settings: read-out: Activity
DU-145 = experiment: Growth inhibition of human DU145 cells assessed as cell growth at 5 uM incubated for 48 hrs by sulforhodamine B assay relative to control; assay type: functional; settings: DU-145, 48 h, read-out: Activity
Hs-578T = experiment: Growth inhibition of human Hs 578T cells assessed as cell growth at 0.05 uM incubated for 48 hrs by sulforhodamine B assay relative to control; assay type: functional; settings: read-out: Activity
SF-295 = experiment: Growth inhibition of human SF295 cells assessed as cell growth at 5 uM incubated for 48 hrs by sulforhodamine B assay relative to control; assay type: functional; settings: SF-295, 48 h, read-out: Activity

Sequence of Receptor tyrosine-protein kinase erbB-2 (Homo sapiens) (P04626 whole entry): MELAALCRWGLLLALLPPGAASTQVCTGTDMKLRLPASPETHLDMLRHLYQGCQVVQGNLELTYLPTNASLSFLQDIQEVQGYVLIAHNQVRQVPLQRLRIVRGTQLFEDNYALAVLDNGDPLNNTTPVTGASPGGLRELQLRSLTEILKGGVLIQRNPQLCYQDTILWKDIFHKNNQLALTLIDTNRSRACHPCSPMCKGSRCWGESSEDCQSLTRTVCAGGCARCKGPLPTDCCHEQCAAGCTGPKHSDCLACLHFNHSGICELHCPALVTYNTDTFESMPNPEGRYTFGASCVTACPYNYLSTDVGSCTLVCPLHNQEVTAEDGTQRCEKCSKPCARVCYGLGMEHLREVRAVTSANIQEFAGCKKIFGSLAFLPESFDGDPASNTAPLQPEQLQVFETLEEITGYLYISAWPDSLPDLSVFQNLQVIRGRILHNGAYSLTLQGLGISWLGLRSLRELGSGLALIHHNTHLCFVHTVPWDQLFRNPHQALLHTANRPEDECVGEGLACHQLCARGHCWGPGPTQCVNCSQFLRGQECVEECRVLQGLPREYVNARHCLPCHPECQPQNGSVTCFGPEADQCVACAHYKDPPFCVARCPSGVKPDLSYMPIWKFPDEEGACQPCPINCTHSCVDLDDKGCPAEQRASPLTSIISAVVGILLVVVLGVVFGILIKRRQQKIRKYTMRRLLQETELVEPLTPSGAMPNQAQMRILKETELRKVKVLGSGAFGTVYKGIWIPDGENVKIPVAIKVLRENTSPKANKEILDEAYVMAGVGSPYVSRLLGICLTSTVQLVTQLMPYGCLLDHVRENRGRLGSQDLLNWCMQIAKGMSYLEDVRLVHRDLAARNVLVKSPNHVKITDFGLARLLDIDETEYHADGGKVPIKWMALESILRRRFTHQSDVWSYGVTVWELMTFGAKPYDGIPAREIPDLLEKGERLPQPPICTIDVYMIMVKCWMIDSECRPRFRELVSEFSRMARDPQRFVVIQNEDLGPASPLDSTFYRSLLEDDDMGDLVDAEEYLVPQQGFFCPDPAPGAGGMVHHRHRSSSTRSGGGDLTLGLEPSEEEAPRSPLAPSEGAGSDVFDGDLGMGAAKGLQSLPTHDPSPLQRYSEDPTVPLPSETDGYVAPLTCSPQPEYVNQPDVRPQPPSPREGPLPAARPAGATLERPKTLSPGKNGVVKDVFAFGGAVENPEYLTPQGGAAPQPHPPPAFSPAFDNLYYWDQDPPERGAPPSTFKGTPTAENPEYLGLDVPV

Compound `COc1cc2cc(Oc3ccc(NC(=O)Nc4ccc(Cl)c(C(F)(F)F)c4)cc3)c(C)nc2cc1OC` has an inhibition [1] of -7.21%, a growth at 3 µM (EKVX [2]) of 5% and an inhibition [3] of 1.04%. The inhibition [4] was 33.5% and the inhibition [5] was 0.83%.
`COc1cc2cc(Oc3ccc(NC(=O)Nc4cc(C(F)(F)F)cc(C(F)(F)F)c4)cc3)c(C)nc2cc1OC` showed a growth at 100 µM (SF-268 [6]) of -71%.
`COc1cc2cc(Oc3ccc(NC(=O)Nc4cccc(C(F)(F)F)c4)cc3)c(C)nc2cc1OC` gave a growth at 50 µM (NCI-H322M) of -29%, a growth at 0.005 µM (UACC-62) of 93% and a growth at 0.05 µM (NCI-H522) of 92%. It also gave a growth at 50 µM (ACHN [7]) of -34%, a growth at 0.005 µM (SF-268 [8]) of 90% and a growth at 0.05 µM (RPMI-8226) of 96%. The growth at 5 µM (ACHN [9]) was 8%, the growth at 0.5 µM (RXF 393) was 103% and the growth at 50 µM (HCT-116) was -86%. For the same compound, the growth at 5 µM (SK-MEL-2) was -34%, the growth at 0.005 µM (EKVX [10]) was 105% and the growth at 0.05 µM (CAKI-1) was 93%. It also gave a growth at 0.05 µM (M14) of 84%, a growth at 0.5 µM (HOP-92) of 90% and a growth at 50 µM (LOX IMVI) of -99%. It also gave a growth at 50 µM (786-0) of -33%, a growth at 50 µM (NCI/ADR-RES) of -56% and a growth at 50 µM (HT-29 [11]) of -99%. It also gave a growth at 5 µM (MOLT-4) of 4%, a growth at 0.5 µM (TK-10) of 108% and a growth at 0.05 µM (U-251) of 99%. The growth at 0.05 µM (SNB-19 [12]) was 91%, the growth at 0.005 µM (HT-29 [13]) was 100% and the growth at 0.005 µM (SNB-19 [14]) was 92%. The growth at 0.5 µM (ACHN [15]) was 95%, the growth at 5 µM (DU-145) was 32% and the growth at 0.05 µM (Hs-578T) was 100%. For the same compound, the growth at 5 µM (SF-295) was -14%.
